Patent US20060052414A1, “Compositions and methods for treating or preventing Hepadnaviridae infection” (priority 2004, published 2006)
Where two headings read alike, the source gives them in different places.

Key:
[1] = test system: HepG 2.2.15; assay: Cytotoxicity, neutral red dye uptake; settings: for Cytotoxicity - Neutral Red Dye Uptake: 24 hours after final treatment
Experimental: (§1) Cytotoxicity analyses were also performed in order to assess whether any observed antiviral effects were due to a general effect on cell viability. This analysis was performed on 96-well plates seeded at the same time and with the identical pool of stock cells used for the antiviral assay described in Example 1. […] Cellular uptake of neutral red dye was used to determine the relative level of toxicity 24 hours after the final treatment. A cell that is viable will take up the neutral red dye, while a dead cell will not. The absorbance of internalized dye at 510 nm (A510) was used for quantitative analysis. Values are presented as a percentage of the average A510 values (±standard deviation, SD) in 9 separate cultures of untreated cells on the same plate.
(§2) The EC90 and CC50 values were used to calculate a Selectivity Index (SI, CC50/EC90) because at least a […] reduction in HBV levels is considered as having achieved statistical significance in this assay (see Korba & Gerin, Antiviral Res. 19:55-70,1992).

[2] = test system: HBV; assay: Anti-HBV antiviral assay: extracellular HBV virion DNA by Southern blot in HepG 2.2.15 cultures; format: cell-based, hepatitis B virus
Experimental: Confluent cultures of chronic HBV producing cell line HepG 2.2.15 in 96-well tissue culture plates in RPMI 1640 medium with 2% fetal bovine serum were used for the antiviral analysis of castanospermine esters (see Korba and Gerin, Antivir. Res. 19:55-70, 1992).
Extracellular HBV nucleic acid levels were measured 24 hours after the last treatment by Southern blot hybridization (quantified via densitometry using equipment and methods known in the art) as a measure of the number of HBV virions produced.
Based on the hybridization analysis, about 1.0 pg extracellular HBV DNA/ml of culture medium is roughly equivalent to about 3×10^5 viral particles/ml. Values ±standard deviations (SD) were calculated by linear regression analysis using data combined from all treated cultures. SDs were calculated using the standard error of regression generated from the linear regression analyses.

[3] = Cytotoxicity, neutral red dye uptake; settings: human
Experimental: as §1, §2

[4] = Hepatitis B virus, HepG2.2.15, Table 5, monotherapy, or celgosivir concentration in combination with ADV

CCCC(=O)O[C@H]1CN2CC[C@H](O)[C@@H]2[C@@H](O)[C@@H]1O [Celgosivir, [1S-(1α,6β,7α,8β,8aβ)]-octahydro-1,6,7,8-indolizinetetrol 6-butanoate]
CC50 ([1]; Table 5, 2-fold reduction in neutral red dye uptake, value for the drug named, >1000 = highest concentration tested): > 1000 µM
HBV Virion DNA Levels ([2]; 15 μM (first panel), 9 daily doses, untreated cells 121 pg/mL): 113 ± 9 pg/mL culture medium
HBV Virion DNA Levels ([2]; 15 μM celgosivir (third panel; combinations plus ADV at the molar ratio)): 111 ± 8 pg/mL culture medium
HBV Virion DNA Levels ([2]; 50 μM (first panel), 9 daily doses, untreated cells 121 pg/mL): 56 ± 4 pg/mL culture medium
HBV Virion DNA Levels ([2]; 50 μM celgosivir (third panel; combinations plus ADV at the molar ratio), assay sensitivity 0.1 pg/mL): 53 ± 6 pg/mL culture medium
HBV Virion DNA Levels ([2]; 150 μM (first panel), 9 daily doses, untreated cells 121 pg/mL): 17 ± 2 pg/mL culture medium
HBV Virion DNA Levels ([2]; 150 μM celgosivir (third panel; combinations plus ADV at the molar ratio), assay sensitivity 0.1 pg/mL): 16 ± 2 pg/mL culture medium
HBV Virion DNA Levels ([2]; 300 μM, 9 daily doses, extracellular, 24 hours after last treatment, untreated cells 121 pg/mL): 8 ± 1 pg/mL culture medium
EC50 ([2]; Table 3, concentration giving 2-fold reduction in HBV DNA vs untreated cultures, read-out: EC50): 28 ± 1.4 µM
EC90 ([2]; Table 3, concentration giving 10-fold reduction in HBV DNA vs untreated cultures, read-out: EC90): 158 ± 22 µM
EC50 ([2]; Table 5, monotherapy, or celgosivir concentration in combination with ADV, read-out: EC50): 24 ± 1.2 µM
EC90 ([2]; Table 5, monotherapy, or celgosivir concentration in combination with ADV, read-out: EC90): 147 ± 15 µM
HBV virion production by the 2.2.15 cells, in words ([2]; summary of Tables 2 and 3): caused a reduction in HBV virion production

CC(C)(C)C(=O)OCOP(=O)(COCCn1cnc2c(N)ncnc21)OCOC(=O)C(C)(C)C [ADV, adefovir dipivoxil]
CC50 [3]: 468 ± 17 µM
Cytotoxicity - Neutral Red Dye Uptake ([1]; 30 μM (combinations: dose of celgosivir)): 100% ± 2 % of Control
Cytotoxicity - Neutral Red Dye Uptake ([1]; 100 μM (combinations: dose of celgosivir)): 98% ± 1 % of Control
Cytotoxicity - Neutral Red Dye Uptake ([1]; 300 μM (combinations: dose of celgosivir)): 73% ± 2 % of Control
Cytotoxicity - Neutral Red Dye Uptake ([1]; 1000 μM (combinations: dose of celgosivir)): 10% ± 1 % of Control
HBV Virion DNA Levels ([2]; 0.3 μM ADV, untreated cells 121 pg/mL): 121 ± 13 pg/mL culture medium
HBV Virion DNA Levels ([2]; 1.0 μM ADV, untreated cells 121 pg/mL): 55 ± 4 pg/mL culture medium
HBV Virion DNA Levels ([2]; 3.0 μM ADV, untreated cells 121 pg/mL): 11 ± 2 pg/mL culture medium
HBV Virion DNA Levels ([2]; 10 μM ADV, untreated cells 121 pg/mL): 3 ± 1 pg/mL culture medium
EC50 ([2]; Hepatitis B virus, HepG2.2.15, Table 3, concentration giving 2-fold reduction in HBV DNA vs untreated cultures, read-out: EC50): 0.95 ± 0.105 µM
EC90 ([2]; Hepatitis B virus, HepG2.2.15, Table 3, concentration giving 10-fold reduction in HBV DNA vs untreated cultures, read-out: EC90): 2.8 ± 0.1 µM
EC50 ([2]; Hepatitis B virus, HepG2.2.15, Table 5, monotherapy, or celgosivir concentration in combination with ADV, read-out: EC50): 1 ± 0.1 µM
EC90 ([2]; Hepatitis B virus, HepG2.2.15, Table 5, monotherapy, or celgosivir concentration in combination with ADV, read-out: EC90): 3 ± 0.1 µM

Nc1ccn([C@@H]2CS[C@H](CO)O2)c(=O)n1 [Compound 3TC, (−)2′,3′-dideoxy, 3′-thiacytidine]
CC50 [3]: 2340 ± 89 µM
EC50 ([2]; Hepatitis B virus, HepG2.2.15, Table 3, concentration giving 2-fold reduction in HBV DNA vs untreated cultures): 0.058 ± 0.004 µM
EC90 ([2]; Hepatitis B virus, HepG2.2.15, Table 3, concentration giving 10-fold reduction in HBV DNA vs untreated cultures): 0.177 ± 0.015 µM
EC50 [2, 4]: 0.058 ± 0.004 µM
EC90 [2, 4]: 0.177 ± 0.015 µM
Selectivity Index (CC50/EC90) ([2]; Table 5, monotherapy, or celgosivir in combination with ADV): 11,709
